# Source: patent US20260183295A1, “METHODS AND COMPOSITIONS FOR TREATING CANCER” (Onconova Therapeutics, Inc., priority 2022, published 2026)
# Columns and labels:
# Assay in all cases: CETSA-MS, MDA-MB-231 intact cells
# Assay type in all cases: cell-based
# Conditions in all cases: 2 μM and 20 μM
# [1] = target: T1, LAMC1 (Homo sapiens, UniProt P11047)
# T1 construct: endogenous in cells; host or cells: MDA-MB-231
# Outline: (§1)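 Cells (TNBC line MDA-MB-231, grown 37° C., 5% CO2) split into four arms, incubated, then heat-challenged on a gradient; supernatant proteins precipitated with cold acetone, digested, isobarically labeled, analyzed by MS.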
# [2] = target: T2, HSPA13 (Homo sapiens, UniProt P48723)
# T2 construct: endogenous in cells; host or cells: MDA-MB-231
# Outline: as §1
# [3] = target: T3, PIP4P2 (Homo sapiens, UniProt Q8N4L2)
# T3 construct: endogenous in cells; host or cells: MDA-MB-231
# Outline: as §1
# [4] = target: T4, ZFR (Homo sapiens, UniProt Q96KR1)
# T4 construct: endogenous in cells; host or cells: MDA-MB-231
# Outline: as §1
# [5] = target: T5, INCENP (Homo sapiens, UniProt Q9NQS7)
# T5 construct: endogenous in cells; host or cells: MDA-MB-231
# Outline: as §1
# [6] = target: T6, TIMP2 (Homo sapiens, UniProt P16035)
# T6 construct: endogenous in cells; host or cells: MDA-MB-231
# Outline: as §1
# [7] = target: T7, ZNF608 (Homo sapiens, UniProt Q9ULD9)
# T7 construct: endogenous in cells; host or cells: MDA-MB-231
# Outline: as §1
# [8] = target: T8, MARK2 (Homo sapiens, UniProt Q7KZI7)
# T8 construct: endogenous in cells; host or cells: MDA-MB-231
# Outline: as §1
# [9] = target: T9, ACAA1 (Homo sapiens, UniProt P09110)
# T9 construct: endogenous in cells; host or cells: MDA-MB-231
# Outline: as §1
# [10] = target: T10, ECE1 (Homo sapiens, UniProt P42892)
# T10 construct: 148 targets unique to Compound 1 in MDA-MB-231 intact cells; endogenous in cells; host or cells: MDA-MB-231
# Outline: as §1
# [11] = target: T11, APP (Homo sapiens, UniProt P05067)
# T11 construct: endogenous in cells; host or cells: MDA-MB-231
# Outline: as §1
# [12] = target: T12, LRCH4 (Homo sapiens, UniProt O75427)
# T12 construct: endogenous in cells; host or cells: MDA-MB-231
# Outline: as §1
# [13] = target: T13, HNRNPUL2 (Homo sapiens, UniProt Q1KMD3)
# T13 construct: endogenous in cells; host or cells: MDA-MB-231
# Outline: as §1
# [14] = target: T14, LRPPRC (Homo sapiens, UniProt P42704)
# T14 construct: endogenous in cells; host or cells: MDA-MB-231
# Outline: as §1
# [15] = target: T15, AHCTF1 (Homo sapiens, UniProt Q8WYP5)
# T15 construct: endogenous in cells; host or cells: MDA-MB-231
# Outline: as §1
# [16] = target: T16, IGFBP4 (Homo sapiens, UniProt P22692)
# T16 construct: endogenous in cells; host or cells: MDA-MB-231
# Outline: as §1
# [17] = target: T17, NPM1 (Homo sapiens, UniProt P06748)
# T17 construct: endogenous in cells; host or cells: MDA-MB-231
# Outline: as §1
# [18] = target: T18, DNAJC13 (Homo sapiens, UniProt O75165)
# T18 construct: 148 targets unique to Compound 1 in MDA-MB-231 intact cells; endogenous in cells; host or cells: MDA-MB-231
# Outline: as §1
# [19] = target: T19, GAK (Homo sapiens, UniProt O14976)
# T19 construct: 148 targets unique to Compound 1 in MDA-MB-231 intact cells; endogenous in cells; host or cells: MDA-MB-231
# Outline: as §1
# [20] = target: T20, SYNCRIP (Homo sapiens, UniProt O60506)
# T20 construct: endogenous in cells; host or cells: MDA-MB-231
# Outline: as §1
# [21] = target: T21, PIK3R4 (Homo sapiens, UniProt Q99570)
# T21 construct: endogenous in cells; host or cells: MDA-MB-231
# Outline: as §1
# [22] = target: T22, RPS6KA3 (Homo sapiens, UniProt P51812)
# T22 construct: endogenous in cells; host or cells: MDA-MB-231
# Outline: as §1
# [23] = target: T23, LAMA5 (Homo sapiens, UniProt O15230)
# T23 construct: endogenous in cells; host or cells: MDA-MB-231
# Outline: as §1
# [24] = target: T24, CDK7 (Homo sapiens, UniProt P50613)
# T24 construct: endogenous in cells; host or cells: MDA-MB-231
# Outline: as §1
# [25] = target: T25, CST3 (Homo sapiens, UniProt P01034)
# T25 construct: 148 targets unique to Compound 1 in MDA-MB-231 intact cells; endogenous in cells; host or cells: MDA-MB-231
# Outline: as §1
# [26] = target: T26, IFT52 (Homo sapiens, UniProt Q9Y366)
# T26 construct: endogenous in cells; host or cells: MDA-MB-231
# Outline: as §1
# [27] = target: T27, NAPG (Homo sapiens, UniProt Q99747)
# T27 construct: endogenous in cells; host or cells: MDA-MB-231
# Outline: as §1
# [28] = target: T28, EIF4G1 (Homo sapiens, UniProt Q04637)
# T28 construct: endogenous in cells; host or cells: MDA-MB-231
# Outline: as §1
# [29] = target: T29, CSNK2A2 (Homo sapiens, UniProt P19784)
# T29 construct: 148 targets unique to Compound 1 in MDA-MB-231 intact cells; endogenous in cells; host or cells: MDA-MB-231
# Outline: as §1
# [30] = target: T30, STK3 (Homo sapiens, UniProt Q13188)
# T30 construct: endogenous in cells; host or cells: MDA-MB-231
# Outline: as §1
# [31] = target: T31, PTX3 (Homo sapiens, UniProt P26022)
# T31 construct: endogenous in cells; host or cells: MDA-MB-231
# Outline: as §1
# [32] = target: T32, AGRN (Homo sapiens, UniProt O00468)
# T32 construct: endogenous in cells; host or cells: MDA-MB-231
# Outline: as §1
# [33] = target: T33, TAF15 (Homo sapiens, UniProt Q92804)
# T33 construct: endogenous in cells; host or cells: MDA-MB-231
# Outline: as §1
# [34] = target: T34, COG8 (Homo sapiens, UniProt Q96MW5)
# T34 construct: endogenous in cells; host or cells: MDA-MB-231
# Outline: as §1
# [35] = target: T35, ELL (Homo sapiens, UniProt P55199)
# T35 construct: 148 targets unique to Compound 1 in MDA-MB-231 intact cells; endogenous in cells; host or cells: MDA-MB-231
# Outline: as §1
# [36] = target: T36, AVEN (Homo sapiens, UniProt Q9NQS1)
# T36 construct: endogenous in cells; host or cells: MDA-MB-231
# Outline: as §1
# T5 sequence (Q9NQS7 whole entry): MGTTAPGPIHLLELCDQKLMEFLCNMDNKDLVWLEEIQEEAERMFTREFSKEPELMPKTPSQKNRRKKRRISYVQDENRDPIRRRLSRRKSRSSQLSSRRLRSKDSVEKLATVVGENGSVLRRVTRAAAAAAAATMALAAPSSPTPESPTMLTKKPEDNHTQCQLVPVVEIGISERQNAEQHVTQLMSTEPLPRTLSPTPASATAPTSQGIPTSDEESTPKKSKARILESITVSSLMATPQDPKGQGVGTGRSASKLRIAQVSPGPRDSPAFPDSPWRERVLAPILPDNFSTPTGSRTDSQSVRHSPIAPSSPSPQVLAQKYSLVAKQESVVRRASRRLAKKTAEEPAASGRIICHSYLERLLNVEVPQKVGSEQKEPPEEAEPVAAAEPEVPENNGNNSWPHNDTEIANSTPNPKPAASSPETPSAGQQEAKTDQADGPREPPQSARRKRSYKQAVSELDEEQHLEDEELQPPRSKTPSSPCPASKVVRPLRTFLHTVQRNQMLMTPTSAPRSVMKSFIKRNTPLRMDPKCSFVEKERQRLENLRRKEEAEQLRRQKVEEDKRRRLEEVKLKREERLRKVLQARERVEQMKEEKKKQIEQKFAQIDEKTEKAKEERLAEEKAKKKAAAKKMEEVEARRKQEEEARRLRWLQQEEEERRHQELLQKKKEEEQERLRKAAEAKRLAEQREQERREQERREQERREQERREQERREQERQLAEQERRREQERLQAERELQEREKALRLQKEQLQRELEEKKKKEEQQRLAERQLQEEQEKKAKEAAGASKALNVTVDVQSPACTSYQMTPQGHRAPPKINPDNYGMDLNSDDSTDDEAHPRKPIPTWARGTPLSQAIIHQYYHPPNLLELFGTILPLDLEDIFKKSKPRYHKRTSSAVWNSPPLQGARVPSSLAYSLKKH
# T24 sequence (P50613 2-346 limits assumed): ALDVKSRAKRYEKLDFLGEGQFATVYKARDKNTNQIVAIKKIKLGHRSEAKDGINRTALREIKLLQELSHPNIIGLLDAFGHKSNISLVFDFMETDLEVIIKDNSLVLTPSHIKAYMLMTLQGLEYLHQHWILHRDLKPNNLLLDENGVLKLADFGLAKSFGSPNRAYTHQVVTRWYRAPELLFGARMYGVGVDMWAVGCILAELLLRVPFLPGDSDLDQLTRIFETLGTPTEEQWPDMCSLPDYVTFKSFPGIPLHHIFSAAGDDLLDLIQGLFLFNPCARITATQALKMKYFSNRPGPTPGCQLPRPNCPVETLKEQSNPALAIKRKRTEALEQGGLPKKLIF
# T24 sequence (P51946 whole entry partner): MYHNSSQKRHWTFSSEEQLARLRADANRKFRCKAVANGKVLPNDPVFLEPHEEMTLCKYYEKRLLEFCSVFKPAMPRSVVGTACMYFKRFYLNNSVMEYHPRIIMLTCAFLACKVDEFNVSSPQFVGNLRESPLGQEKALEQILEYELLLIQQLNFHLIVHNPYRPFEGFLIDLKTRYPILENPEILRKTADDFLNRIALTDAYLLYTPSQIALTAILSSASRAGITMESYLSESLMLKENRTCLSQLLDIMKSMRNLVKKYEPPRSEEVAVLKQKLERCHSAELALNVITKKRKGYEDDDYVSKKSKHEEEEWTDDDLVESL
# T24 sequence (P51948 whole entry partner): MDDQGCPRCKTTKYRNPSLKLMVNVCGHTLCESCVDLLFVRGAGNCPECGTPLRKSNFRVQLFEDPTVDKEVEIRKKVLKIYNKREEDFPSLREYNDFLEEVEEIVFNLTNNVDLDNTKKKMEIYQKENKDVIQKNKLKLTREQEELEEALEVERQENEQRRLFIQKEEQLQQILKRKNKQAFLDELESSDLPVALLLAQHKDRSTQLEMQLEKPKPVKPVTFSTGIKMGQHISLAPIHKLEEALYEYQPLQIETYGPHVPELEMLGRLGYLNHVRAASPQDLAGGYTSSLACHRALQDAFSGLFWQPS
# T1 sequence (P11047 34-1609): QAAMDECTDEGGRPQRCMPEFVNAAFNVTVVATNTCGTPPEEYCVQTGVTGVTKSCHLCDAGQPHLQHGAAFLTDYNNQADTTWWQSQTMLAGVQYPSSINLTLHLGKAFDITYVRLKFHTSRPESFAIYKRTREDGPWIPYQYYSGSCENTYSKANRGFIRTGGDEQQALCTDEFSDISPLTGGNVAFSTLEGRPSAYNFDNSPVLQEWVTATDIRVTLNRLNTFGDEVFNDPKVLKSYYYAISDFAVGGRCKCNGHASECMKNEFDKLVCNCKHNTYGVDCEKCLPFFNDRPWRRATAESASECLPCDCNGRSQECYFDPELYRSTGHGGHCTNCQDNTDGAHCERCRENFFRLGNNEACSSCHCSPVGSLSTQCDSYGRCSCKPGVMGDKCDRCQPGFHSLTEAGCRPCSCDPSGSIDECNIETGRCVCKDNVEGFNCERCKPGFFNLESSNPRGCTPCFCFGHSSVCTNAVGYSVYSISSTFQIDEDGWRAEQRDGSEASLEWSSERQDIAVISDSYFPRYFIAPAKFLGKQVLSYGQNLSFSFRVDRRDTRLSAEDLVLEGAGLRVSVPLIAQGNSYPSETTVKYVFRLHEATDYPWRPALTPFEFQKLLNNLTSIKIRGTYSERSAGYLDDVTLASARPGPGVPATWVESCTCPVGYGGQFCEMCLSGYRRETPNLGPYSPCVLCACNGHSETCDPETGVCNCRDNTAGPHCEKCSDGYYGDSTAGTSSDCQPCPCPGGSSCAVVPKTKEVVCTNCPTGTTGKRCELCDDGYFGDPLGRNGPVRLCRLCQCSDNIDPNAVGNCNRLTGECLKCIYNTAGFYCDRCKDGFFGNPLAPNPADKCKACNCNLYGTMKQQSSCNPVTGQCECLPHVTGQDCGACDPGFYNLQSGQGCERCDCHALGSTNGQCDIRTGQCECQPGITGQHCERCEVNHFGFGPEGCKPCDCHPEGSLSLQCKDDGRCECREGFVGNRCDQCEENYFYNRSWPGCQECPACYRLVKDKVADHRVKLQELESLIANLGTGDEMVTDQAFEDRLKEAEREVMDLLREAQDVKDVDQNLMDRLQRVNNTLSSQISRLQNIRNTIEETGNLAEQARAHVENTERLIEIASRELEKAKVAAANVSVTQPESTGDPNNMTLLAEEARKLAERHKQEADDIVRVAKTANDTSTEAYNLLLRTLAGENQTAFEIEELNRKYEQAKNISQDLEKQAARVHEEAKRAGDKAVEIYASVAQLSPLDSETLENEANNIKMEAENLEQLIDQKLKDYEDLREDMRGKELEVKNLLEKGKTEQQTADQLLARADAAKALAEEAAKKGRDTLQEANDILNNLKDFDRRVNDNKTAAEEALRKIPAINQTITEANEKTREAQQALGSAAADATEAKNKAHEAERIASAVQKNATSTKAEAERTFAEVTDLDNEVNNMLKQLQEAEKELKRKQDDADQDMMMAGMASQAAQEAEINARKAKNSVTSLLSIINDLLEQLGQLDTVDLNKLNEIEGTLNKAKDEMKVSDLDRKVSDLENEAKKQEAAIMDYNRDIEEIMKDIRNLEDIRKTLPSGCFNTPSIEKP
# T19 sequence (O14976 whole entry): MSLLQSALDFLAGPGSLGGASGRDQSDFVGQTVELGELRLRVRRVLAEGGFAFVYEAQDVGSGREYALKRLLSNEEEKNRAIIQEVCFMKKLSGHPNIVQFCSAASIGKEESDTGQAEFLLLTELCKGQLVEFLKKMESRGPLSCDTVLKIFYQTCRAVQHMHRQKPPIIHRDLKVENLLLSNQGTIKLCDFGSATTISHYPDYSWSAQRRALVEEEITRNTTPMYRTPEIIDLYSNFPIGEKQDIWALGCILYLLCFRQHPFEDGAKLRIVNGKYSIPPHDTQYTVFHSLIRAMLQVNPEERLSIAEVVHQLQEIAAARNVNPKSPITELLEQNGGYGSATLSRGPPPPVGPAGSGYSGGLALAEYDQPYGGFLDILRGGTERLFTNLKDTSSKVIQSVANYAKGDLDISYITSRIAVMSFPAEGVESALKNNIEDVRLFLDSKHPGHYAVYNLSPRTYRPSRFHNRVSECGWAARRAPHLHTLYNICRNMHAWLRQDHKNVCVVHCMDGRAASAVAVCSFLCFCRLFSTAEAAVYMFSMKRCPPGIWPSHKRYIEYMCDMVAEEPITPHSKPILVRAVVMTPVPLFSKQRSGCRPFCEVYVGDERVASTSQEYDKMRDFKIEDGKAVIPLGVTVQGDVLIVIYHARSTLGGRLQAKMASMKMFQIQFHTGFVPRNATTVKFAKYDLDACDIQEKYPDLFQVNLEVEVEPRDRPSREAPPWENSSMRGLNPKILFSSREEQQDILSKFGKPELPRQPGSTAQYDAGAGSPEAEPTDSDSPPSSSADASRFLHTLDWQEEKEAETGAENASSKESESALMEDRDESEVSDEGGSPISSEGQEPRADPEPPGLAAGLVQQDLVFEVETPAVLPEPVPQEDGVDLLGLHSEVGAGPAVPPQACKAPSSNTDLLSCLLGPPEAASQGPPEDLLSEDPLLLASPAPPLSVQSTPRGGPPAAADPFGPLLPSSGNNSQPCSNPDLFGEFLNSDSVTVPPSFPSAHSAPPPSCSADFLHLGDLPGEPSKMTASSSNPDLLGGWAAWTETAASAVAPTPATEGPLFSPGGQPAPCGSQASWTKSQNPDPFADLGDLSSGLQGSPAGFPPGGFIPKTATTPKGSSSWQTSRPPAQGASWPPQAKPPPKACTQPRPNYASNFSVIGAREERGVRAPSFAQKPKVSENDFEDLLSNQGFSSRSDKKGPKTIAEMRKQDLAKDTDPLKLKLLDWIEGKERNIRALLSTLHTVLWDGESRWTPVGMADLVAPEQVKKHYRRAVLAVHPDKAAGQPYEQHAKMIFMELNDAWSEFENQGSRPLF
# T3 sequence (Q8N4L2 whole entry): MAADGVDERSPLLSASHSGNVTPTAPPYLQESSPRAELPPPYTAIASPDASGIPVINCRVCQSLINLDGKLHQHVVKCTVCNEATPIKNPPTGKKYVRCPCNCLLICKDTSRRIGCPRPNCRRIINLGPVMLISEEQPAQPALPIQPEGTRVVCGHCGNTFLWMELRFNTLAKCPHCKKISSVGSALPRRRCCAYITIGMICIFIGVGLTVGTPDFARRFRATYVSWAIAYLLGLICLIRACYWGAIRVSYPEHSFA
smiles,measurement,setting,value
"CN1CCN(c2ccc(Nc3ncc4cc(C#N)c(=O)n(C5CCCC5)c4n3)cc2)CC1 [Compound 1, 8-cyclopentyl-2-((4-(4-methylpiperazin-1-yl)phenyl)amino)-7-oxo-7,8-dihydropyrido[2,3-d]pyrimidine-6-carbonitrile]",Group (CETSA-MS thermal shift),[1],Stabilization
same,Group (CETSA-MS thermal shift),[2],Stabilization
same,Group (CETSA-MS thermal shift),[3],Stabilization
same,Group (CETSA-MS thermal shift),[4],Stabilization
same,Group (CETSA-MS thermal shift),[5],Stabilization
same,Group (CETSA-MS thermal shift),[6],Stabilization
same,Group (CETSA-MS thermal shift),[7],Destabilization
same,Group (CETSA-MS thermal shift),[8],Destabilization
same,Group (CETSA-MS thermal shift),[9],Destabilization
same,Group (CETSA-MS thermal shift),[10],Stabilization
same,Group (CETSA-MS thermal shift),[11],Stabilization
same,Group (CETSA-MS thermal shift),[12],Stabilization
same,Group (CETSA-MS thermal shift),[13],Stabilization
same,Group (CETSA-MS thermal shift),[14],Stabilization
same,Group (CETSA-MS thermal shift),[15],Stabilization
same,Group (CETSA-MS thermal shift),[16],Stabilization
same,Group (CETSA-MS thermal shift),[17],Destabilization
same,Group (CETSA-MS thermal shift),[18],Stabilization
same,Group (CETSA-MS thermal shift),[19],Stabilization
same,Group (CETSA-MS thermal shift),[20],Stabilization
same,Group (CETSA-MS thermal shift),[21],Stabilization
same,Group (CETSA-MS thermal shift),[22],Destabilization
same,Group (CETSA-MS thermal shift),[23],Stabilization
same,Group (CETSA-MS thermal shift),[24],Destabilization
same,Group (CETSA-MS thermal shift),[25],Stabilization
same,Group (CETSA-MS thermal shift),[26],Stabilization
same,Group (CETSA-MS thermal shift),[27],Stabilization
same,Group (CETSA-MS thermal shift),[28],Destabilization
same,Group (CETSA-MS thermal shift),[29],Stabilization
same,Group (CETSA-MS thermal shift),[30],Destabilization
same,Group (CETSA-MS thermal shift),[31],Stabilization
same,Group (CETSA-MS thermal shift),[32],Stabilization
same,Group (CETSA-MS thermal shift),[33],Stabilization
same,Group (CETSA-MS thermal shift),[34],Destabilization
same,Group (CETSA-MS thermal shift),[35],Stabilization
same,Group (CETSA-MS thermal shift),[36],Destabilization
